# Patent publication US6485713B1, “Sunscreen compositions and methods and materials for producing the same” (The C. P. Hall Company, priority 2002, dated 2002)
# Values joined by “and” are separate entries in the source; they are usually repeats but may differ in a detail not shown here. Identical values can stand only once. Like-named read-outs stand apart in the source and are kept apart here. Marks after values point to notes of the source that are not given here.
# Tests used:
# [1] = Dielectric constants of sunscreen ingredients at 25° C.; type: physicochemical; conditions: for Dielectric Constant at 25° C. (ε): neat ingredient; for Dielectric Constant at 25° C. (ε), estimated value: marked estimated
# From the text: A step of determining the polarity of a mixture or an emulsion can be performed in various ways. For example, determining a polarity can include measuring a property that is a function of polarity, such as a dielectric constant. Measurement of a dielectric constant of a liquid can be performed by various sensors, such as immersion probes, flow-through probes, and cup-type probes, attached to various meters, such as those available from the Brookhaven Instruments Corporation of Holtsville, N.Y. (e.g., model BI-870) and the Scientifica Company of Princeton, N.J. (e.g. models 850 and 870). For consistency of comparison, preferably all measurements for a particular filter system are performed at substantially the same sample temperature, e.g., by use of a water bath. Generally, the measured dielectric constant of a substance will increase at lower temperatures and decrease at higher temperatures.
# A mixture of solvent system and filter system, in accordance with one preferred embodiment, are combined with well-known cosmetically-acceptable additives, such as moisturizers, emollients, solvents, co-solvents, lubricants, thickeners, emulsifiers and/or other common cosmetic formulation additives for solubility of sunscreen active compounds, emulsification, thickening and to provide other skin enhancement, e.g., moisturizing properties. The compositions can be produced as oily lotions, gels, solid sticks, emulsions, aerosols, and all other forms of cosmetic compositions. The dielectric constants of various sunscreen additive materials are well known, see, Dielectric Constant Reference Guide of ASI Instruments, Inc., pages 1-64, (http://asiinstruments.com/dcl.html), hereby incorporated herein by reference.
# [2] = marked literature value, cited from earlier work
# [3] = Solvency testing of solvents for oxybenzone; type: physicochemical; conditions: solute oxybenzone dissolved in the named solvent
# From the text: (§1) Examples of crystalline UV filters include oxybenzone, avobenzone, and octyl triazone (sold under the trade name UVINUL T-150 by BASF Corporation) and methylbenzilidene camphor.
# [4] = Solvency testing of solvents for avobenzone; type: physicochemical; conditions: solute avobenzone dissolved in the named solvent
# From the text: as §1
# [5] = Solvency testing of solvents for octyl triazone; type: physicochemical; conditions: solute octyl triazone dissolved in the named solvent
# From the text: as §1
# [6] = Solvency for crystalline UV filters, comparison with traditional solvents; type: physicochemical; conditions: compared to traditional solvents used in sunscreen compositions
# From the text: as §1
Dielectric Constant at 25° C. (ε) [1],Solvency for Oxybenzone [3],Solvency for Avobenzone [4],Solvency for Octyl triazone [5],Compound,further results
3.06,,,,CCCCCCCCCCCCCCCC(=O)OCC(CC)CCCC (centres unmarked) [Ethylhexyl palmitate],
3.04,,,,Octyldodecyl neopentanoate,
3.20,,,,CCCCCCCCCCCCCCCC(=O)OC(C)C [Isopropyl palmitate],
3.24,20% wt. %,15% wt. %,<5% wt. %,CCCCCCCCCCCCCC(=O)OC(C)C [Isopropyl myristate],
4.74 and 5.78,,,,CCCCCCCCOC(=O)CC(O)C(=O)OCCCCCCCC (centres unmarked) [Dioctyl malate],
12.43,38% wt. %,37% wt. %,37% wt. %,"CCCCCCCCCC(=O)N(C)C [N,N-dimethyldecanamide]",ability to solvate crystalline UV filters (in words) [6]: far superior
7.42,,,,CC(C)CCOC(=O)CC(O)C(=O)OCCC(C)C (centres unmarked) [Diisoamyl malate],
3.88,,,,PPG-2 myristyl ether propionate,

# The remaining lines, values behind:
Compound,Dielectric Constant at 25° C. (ε) [1],Solvency for Oxybenzone [3],Solvency for Avobenzone [4],Solvency for Octyl triazone [5],further results
"COc1ccc(C(=O)CC(=O)c2ccc(C(C)(C)C)cc2)cc1 [Avobenzone, 4-(1,1-dimethylethyl)-4′-methoxydibenzoylmethane, reference compound]",,,,,"Dielectric Constant at 25° C. (ε), estimated value [1]: ~10 (estimated.); Dielectric Constant at 25° C. (ε), estimated value ([1]; listed as avobenzone): ~10*"
O [Water],80,,,,
"CCCCCCC(CCCC)COC(=O)CC(O)C(=O)OCC(CCCC)CCCCCC (centres unmarked) [Dibutyloctyl malate, bis(2-butyloctyl)malate]",4.65,,,,
"COc1ccc(C(=O)c2ccccc2)c(O)c1 [Benzophenone-3, benzophenone-3]",,,,,"Dielectric Constant at 25° C. (ε), literature value ([2]; listed as benzophenone-3): 13^†; Dielectric Constant at 25° C. (ε), literature value [2]: 13"
"CCCCC(CC)COC(=O)C(C#N)=C(c1ccccc1)c1ccccc1 (centres unmarked) [Octocrylene, 2-ethylhexyl-2-cyano-3,3 diphenylacrylate, reference compound]",11.08,32% wt. %,27% wt. %,1% wt. %,
CCCCC(CC)COC(=O)CCCCC(=O)OCC(CC)CCCC (centres unmarked) [Diethylhexyl adipate],4.21,20% wt. %,10% wt. %,<5% wt. %,
CCCCCCCCCCCCCCCCCC(=O)OCC(CC)CCCC (centres unmarked) [Ethylhexyl stearate],3.05,,,,
"CCCCC(CC)COC(=O)c1ccccc1O (centres unmarked) [Ethylhexyl salicylate, 2-ethylhexyl salicylate, reference compound]",6.20,18% wt. %,16% wt. %,5% wt. %,Dielectric Constant at 25° C. (ε) ([1]; listed as octyl salicylate): 6.2
isododecyl alcohol dimer with isopherone diisocyanate (IPDI) [Isododecyl alcohol dimer with IPDI],,,,,"Dielectric Constant at 25° C. (ε), estimated value [1]: ~10 (estimated.); Dielectric Constant at 25° C. (ε), estimated value ([1]; listed as isododecyl alcohol dimer w/IPDI): ~10*"
Diethylhexyl malate,4.74 and 5.88,19% wt. % and 15% wt. %,12.5% wt. % and 15% wt. %,5% wt. % and <5% wt. %,Dielectric Constant at 25° C. (ε) ([1]; listed as diethylhexyl malate): 5.88
"CCCCC(CC)COC(=O)c1ccc2cc(C(=O)OCC(CC)CCCC)ccc2c1 (centres unmarked) [Diethylhexyl 2,6-naphthalate]",4.34,,,,
Isododecyl alcohol dimer with HDI,,,,,"Dielectric Constant at 25° C. (ε), estimated value [1]: ~10 (estimated.); Dielectric Constant at 25° C. (ε), estimated value ([1]; listed as isododecyl alcohol dimer w/HDI): ~10*"
CCCCCCCCCCCCCCCCCC(C)C [Isoeicosane],2.04,,,,
"CCCCC(CC)COC(=O)C=Cc1ccc(OC)cc1 (centres unmarked) [Ethylhexyl methoxycinnamate, 2-ethylhexyl paramethoxycinnamate, reference compound]",5.98,24% wt. %,17% wt. %,15% wt. %,
